Data on eight molecules can be found in ChEMBL document CHEMBL1201862, “PubChem BioAssay data set” (2004).

Test systems include NCI-H23; TK-10; HCT-116; OVCAR-8; NCI-H522; SF-539; SN12C; UO-31; M14; UACC-62; MDA-MB-231; HOP-62; PC-3; MDA-N; EKVX; HCC 2998; SR; HT-29; NCI-H460.
Holding throughout (assay): growth of human tumour cells (NCI), 48 h

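These data come from cells grown in 96-well plates and exposed to compound for 48 hours at five concentrations. GI50 is the concentration that inhibits growth by half.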 Activity calls are given as the source filed them. No stated cut-off is given here; in the data, active = GI50 up to about 1.1 µM and inactive = higher.

Take `Nc1ccc(C2SCC(=O)N2NS(=O)(=O)c2cccc(C(=O)O)c2)cc1` (configuration not stated): the GI50 with NCI-H23, in the test with TK-10, with HCT-116, with OVCAR-8, in the test with NCI-H522 and with SF-539 was > 100 µM (inactive) throughout. Besides, the GI50 in the test with SN12C, in the test with UO-31, in the test on M14, in the test on UACC-62, with MDA-MB-231 and with HOP-62 was > 100 µM (inactive) each time. The GI50 in the test on PC-3 is > 100 µM (inactive); in the test on MDA-N, > 100 µM (inactive); in the test with EKVX, > 100 µM (inactive); in the test on HCC 2998, > 100 µM (inactive); with SR, 12.1 µM (inactive); with HT-29, > 100 µM (inactive). Besides, the GI50 in the test with NCI-H460 was > 100 µM (inactive).
Take `CCCCc1c(OC)cc(O)c2c1C(=O)c1[nH]c(C(=O)O)c(O)c(=O)c1C2=O`: the GI50 in the test on NCI-H23 was 2.81 µM (inactive); with TK-10, 13.9 µM (inactive); in the test on HCT-116, 3.37 µM (inactive); with OVCAR-8 it was 2.27 µM (inactive); with NCI-H522, 2.12 µM (inactive); in the test with SF-539, 0.499 µM (active). Further, the GI50 in the test with SN12C is 6.08 µM (inactive); in the test on UO-31 it was 1.73 µM (inactive); in the test with M14, 4.83 µM (inactive); in the test on UACC-62, 2.28 µM (inactive); in the test on MDA-MB-231 it was 0.847 µM (active); in the test on HOP-62, 1.57 µM (inactive). For the same molecule, the GI50 with PC-3 was 6.12 µM (inactive); in the test on MDA-N, 17.2 µM (inactive); in the test on EKVX, 2.34 µM (inactive); with HCC 2998 it was 19.8 µM (inactive); with SR, 6.93 µM (inactive); with HT-29 it was > 100 µM (inactive). In addition, the GI50 in the test on NCI-H460 is 46.8 µM (inactive).
For the molecule `O=C1Nc2ccccc2/C1=N/N=C1NCCCCN1`, the GI50 in the test with NCI-H23, in the test with TK-10, in the test with HCT-116, with OVCAR-8, in the test with NCI-H522 and in the test with SF-539 was > 100 µM (inactive) in each case. For the same molecule, the GI50 with SN12C, with UO-31, in the test with M14, with UACC-62, in the test on MDA-MB-231 and with HOP-62 was > 100 µM (inactive) each time. Besides, the GI50 with PC-3, in the test on MDA-N, in the test with EKVX, in the test with HCC 2998, in the test on SR and with HT-29 was > 100 µM (inactive) throughout. The GI50 in the test with NCI-H460 is > 100 µM (inactive).
As to `CCCC(=O)OC[n+]1cccc(-c2c(COC(=O)NC(C)C)c(COC(=O)NC(C)C)c3n2CCC3)c1`, the GI50 was 34.8 µM (inactive) with NCI-H23; > 72.4 µM (inactive) in the test on TK-10; 19.7 µM (inactive) in the test on HCT-116; 55.7 µM (inactive) in the test on OVCAR-8; 30.4 µM (inactive) in the test with NCI-H522; 28.8 µM (inactive) in the test with SF-539. Also, the GI50 with SN12C is 37.8 µM (inactive); with UO-31, 38.7 µM (inactive); in the test on M14 it was 50.9 µM (inactive); in the test on UACC-62, 20.1 µM (inactive); with MDA-MB-231 it was > 74.8 µM (inactive); in the test with HOP-62, 49.8 µM (inactive). Besides, the GI50 was > 86.7 µM (inactive) in the test with PC-3; > 100 µM (inactive) in the test with MDA-N; > 100 µM (inactive) with EKVX; > 100 µM (inactive) in the test with HCC 2998; 5.75 µM (inactive) with SR; > 68.2 µM (inactive) in the test on HT-29. Also, the GI50 with NCI-H460 is 29.6 µM (inactive).
Turning to `COc1cc(/C=N/N=C2NCCN2)ccc1O`, the GI50 in the test with NCI-H23, with TK-10, in the test on HCT-116, in the test on OVCAR-8, in the test with NCI-H522 and in the test with SF-539 was > 100 µM (inactive) throughout. The GI50 with SN12C, with UO-31, in the test on M14, with UACC-62, in the test on MDA-MB-231 and in the test on HOP-62 was > 100 µM (inactive) in each case. Moreover, the GI50 in the test on PC-3, in the test on MDA-N, in the test on EKVX, with HCC 2998, in the test with SR and with HT-29 was > 100 µM (inactive) throughout. Besides, in the test with NCI-H460, the GI50 is > 100 µM (inactive).
Consider `O=C1c2cc3c(cc2NC(c2ccccc2F)C1O)OCO3` (configuration not stated), for which the GI50 in the test with NCI-H23 was 22.6 µM (inactive); in the test with TK-10 it was 21 µM (inactive); in the test on HCT-116 it was 3.97 µM (inactive); in the test with OVCAR-8, 28.2 µM (inactive); in the test with NCI-H522 it was 10.5 µM (inactive); in the test with SF-539 it was 12.2 µM (inactive). Also, the GI50 in the test with SN12C was 22.2 µM (inactive); in the test with UO-31 it was 27.7 µM (inactive); in the test with M14, 10.4 µM (inactive); with UACC-62, 10.9 µM (inactive); in the test with MDA-MB-231, 20.2 µM (inactive); in the test with HOP-62, 22.7 µM (inactive). Also, the GI50 in the test with PC-3 is 10.6 µM (inactive); in the test on MDA-N, 2.36 µM (inactive); with EKVX, 16.9 µM (inactive); in the test with HCC 2998, 15.5 µM (inactive); in the test on SR, 3.74 µM (inactive); with HT-29, 17.6 µM (inactive). The GI50 in the test on NCI-H460 is 9.46 µM (inactive).
Turning to `C[N+](C)(C)/N=C\c1ccc(O)c(O)c1`, the GI50 in the test with NCI-H23, with TK-10, in the test on HCT-116, in the test with OVCAR-8, in the test on NCI-H522 and in the test on SF-539 was > 100 µM (inactive) each time. Moreover, the GI50 with SN12C, in the test with UO-31, in the test on M14, in the test on UACC-62, in the test with MDA-MB-231 and in the test with HOP-62 was > 100 µM (inactive) in each case. Moreover, the GI50 in the test with PC-3, in the test with MDA-N, with EKVX, in the test with HCC 2998, with SR and in the test with HT-29 was > 100 µM (inactive) in each case. In the test on NCI-H460, the GI50 was > 100 µM (inactive).
On to `C[C@H]1CC(=O)[C@@]2(O)C#C/C=C\C#C[C@@H]3Nc4c(cc(O)c5c4C(=O)c4ccccc4C5=O)[C@]24O[C@]314`, for which the GI50 in the test with NCI-H23 is 0.00461 µM (active); in the test on TK-10 it was 0.0574 µM (active); with HCT-116, 0.00982 µM (active); in the test on OVCAR-8, 0.0158 µM (active); in the test on NCI-H522 it was 0.0504 µM (active); in the test with SF-539, 0.00316 µM (active). The GI50 in the test with SN12C was 0.00296 µM (active); in the test with UO-31, < 0.001 µM (active); in the test on M14, 0.00916 µM (active); in the test with UACC-62, 0.00764 µM (active); in the test with MDA-MB-231, 0.0873 µM (active); in the test with HOP-62 it was 0.00159 µM (active). Moreover, the GI50 in the test on PC-3 is 0.259 µM (active); in the test with MDA-N it was 0.0309 µM (active); with EKVX, 0.228 µM (active); with HCC 2998, 0.00647 µM (active); in the test with SR, 0.00256 µM (active); with HT-29, 0.0619 µM (active). For the same molecule, in the test on NCI-H460, the GI50 is < 0.001 µM (active).
